The values that follow come from BindingDB's records for doi:10.1016/j.chembiol.2014.09.011 (Astrazeneca R&D, 2014).

One may read the IC50 as the midpoint of a concentration-inhibition curve.

The target in this experiment is T1, AMP deaminase 3 (Homo sapiens, UniProt Q01432).
T1 sequence (Q01432 whole entry): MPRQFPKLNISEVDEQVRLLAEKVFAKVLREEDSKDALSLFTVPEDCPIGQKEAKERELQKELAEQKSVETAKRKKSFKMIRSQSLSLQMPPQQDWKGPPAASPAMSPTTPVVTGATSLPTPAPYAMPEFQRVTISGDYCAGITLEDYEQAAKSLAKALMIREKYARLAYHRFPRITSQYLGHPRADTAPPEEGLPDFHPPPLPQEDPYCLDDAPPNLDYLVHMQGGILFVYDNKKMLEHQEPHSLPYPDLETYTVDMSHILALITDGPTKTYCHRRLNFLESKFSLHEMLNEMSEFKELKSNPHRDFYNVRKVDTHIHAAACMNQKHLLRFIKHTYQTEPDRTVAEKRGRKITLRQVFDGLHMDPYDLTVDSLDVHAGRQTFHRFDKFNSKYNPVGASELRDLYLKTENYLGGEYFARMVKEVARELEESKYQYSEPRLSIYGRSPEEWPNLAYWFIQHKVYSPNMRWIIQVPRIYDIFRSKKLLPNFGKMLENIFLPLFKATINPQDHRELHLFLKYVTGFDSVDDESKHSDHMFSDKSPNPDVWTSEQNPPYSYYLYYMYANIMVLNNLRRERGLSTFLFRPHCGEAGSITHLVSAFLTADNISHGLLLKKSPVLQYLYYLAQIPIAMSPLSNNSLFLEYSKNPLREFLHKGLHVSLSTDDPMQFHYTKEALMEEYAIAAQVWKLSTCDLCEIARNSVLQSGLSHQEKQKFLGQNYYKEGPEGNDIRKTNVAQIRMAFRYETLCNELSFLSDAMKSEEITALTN
Kind of experiment: AMPD Enzymatic Activity Assay. Conditions: pH 7.4.

The compound `C[C@@H](NCc1ccc(-c2ccc(C(=O)O)cn2)cc1)c1cccc2ccncc12` [6-[4-({[(1R)-1-(isoquinolin-8-yl)ethyl]amino}methyl)phenyl]pyridine-3-carboxylic acid (Compound 2)] returned an IC50 of 7.3 µM.
The compound `C[C@H](NCc1ccc(-c2ccc(C(=O)O)cn2)cc1)c1cccc2ccncc12` [6-[4-({[(1S)-1-(isoquinolin-8-yl)ethyl]amino}methyl)phenyl]pyridine-3-carboxylic acid (Compound 3)] gave an IC50 of 0.075 µM.
